{
  "source": "paper PMC7397262",
  "about": "“Design, Synthesis and Biological Evaluation of Novel Triazole N-acylhydrazone Hybrids for Alzheimer’s Disease” (Molecules, 2020)",
  "key": {"[1]": {"tested_on": "SH-SY5Y cells", "assay": "Toxicity in neuronal SH-SY5Y cells, MTT assay", "type": "cell-based", "details": "for IC50: Homo sapiens, read-out: IC50 (concentration resulting in 50% inhibition of neuronal viability), 24 h, 2.5-80 μM; for toxic effects: 24 h, at 80 μM", "description": "[…]. Human neuronal SH-SY5Y cells were routinely grown in Dulbecco’s modified Eagle’s Medium supplemented with 10% fetal bovine serum, 2 mM L-glutamine, 50 U/mL penicillin and 50 µg/mL streptomycin at 37 °C in a humidified incubator with 5 % CO2.\nSH-SY5Y cells were seeded in a 96-well plate at 2 × 10^4 cells/well, incubated for 24 h and then treated with the compounds for 24 h. Cell viability, in terms of mitochondrial metabolic function, was evaluated by 3-(4,5-dimethylthiazol-2-yl)-2,5-diphenyltetrazolium bromide (MTT) test, as previously described."}, "[2]": {"tested_on": "SH-SY5Y cells", "assay": "ROS formation induced by t-BOOH in SH-SY5Y cells, H2DCF-DA probe", "type": "cell-based, human", "parameters": "key to Direct Antioxidant Activity in SH-SY5Y Cells (percentage inhibition of ROS formation induced by t-BOOH): In: inactive", "details": "for inhibition at 10 µM: Homo sapiens, SH-SY5Y, chronic treatment 24 h with compound 10 μM, then t-BOOH 100 μM for 30 min, read-out: Indirect Antioxidant Activity in SH-SY5Y Cells (percentage inhibition of ROS formation induced by t-BOOH); for Direct Antioxidant Activity in SH-SY5Y Cells (percentage inhibition of ROS formation induced by t-BOOH): simultaneous treatment 30 min, compound 10 µM and t-BOOH 100 μM", "description": "In parallel, we evaluated the antioxidant activity of the compounds not associated with toxicity (Figure 5) against the ROS formation induced by t-BOOH in SH-SY5Y cells. To appraise the direct and indirect antioxidant activity, the SH-SY5Y cells were simultaneously treated for 30 min with 3a, 3b and 3e (10 µM) and t-BOOH (100 µM) or chronically treated for 24 h (the time necessary to activate the endogenous antioxidant system) with 3a, 3b and 3e (10 µM) and then exposed to t-BOOH (100 µM) for 30 min, respectively. Then, the intracellular ROS formation was detected by using the fluorescent probe 2′,7′-dichlorodihydrofluorescein diacetate (H2DCF-DA).\n(§1) Human neuronal SH-SY5Y cells were routinely grown in Dulbecco’s modified Eagle’s Medium supplemented with 10% fetal bovine serum, 2 mM L-glutamine, 50 U/mL penicillin and 50 µg/mL streptomycin at 37 °C in a humidified incubator with 5 % CO2.\nSH-SY5Y cells were seeded in a 96-well plate at 2 × 10^4 cells/well, incubated for 24 h, and then treated with compounds for 24 h before or during the treatment of 30 min with t-BOOH. ROS formation was evaluated by using the fluorescent probe H2DCF-DA, as previously described."}, "[3]": {"tested_on": "SH-SY5Y cells", "assay": "Intracellular GSH levels in SH-SY5Y cells, MCB assay", "type": "cell-based, human", "details": "24 h, 2.5–10 μM", "description": "Among the endogenous antioxidants in the central nervous system, glutathione (GSH) plays an important role to maintain the redox balance by directly interacting with ROS formed during the physiological metabolic processes. […] We therefore evaluated the ability of compounds 3a, 3b and 3e to modulate the intracellular GSH levels in SH-SY5Y cells, after 24 h of treatment using the fluorescent probe monochlorobimane (MCB).\nas §1\nSH-SY5Y cells were seeded in a black 96-well plate at 2 × 10^4 cells/well, incubated for 24 h and then treated with the compounds for 24 h. GSH levels were evaluated by using monochlorobimane, as previously described"}, "[4]": {"biological_target": "T1, EeAChE (Electrophorus electricus, UniProt O42275)", "T1 construct": "purified from Electrophorus electricus; purchased Sigma-Aldrich type V-S; host or cells: Electrophorus electricus (natural source)", "T1 sequence (O42275 24-633)": "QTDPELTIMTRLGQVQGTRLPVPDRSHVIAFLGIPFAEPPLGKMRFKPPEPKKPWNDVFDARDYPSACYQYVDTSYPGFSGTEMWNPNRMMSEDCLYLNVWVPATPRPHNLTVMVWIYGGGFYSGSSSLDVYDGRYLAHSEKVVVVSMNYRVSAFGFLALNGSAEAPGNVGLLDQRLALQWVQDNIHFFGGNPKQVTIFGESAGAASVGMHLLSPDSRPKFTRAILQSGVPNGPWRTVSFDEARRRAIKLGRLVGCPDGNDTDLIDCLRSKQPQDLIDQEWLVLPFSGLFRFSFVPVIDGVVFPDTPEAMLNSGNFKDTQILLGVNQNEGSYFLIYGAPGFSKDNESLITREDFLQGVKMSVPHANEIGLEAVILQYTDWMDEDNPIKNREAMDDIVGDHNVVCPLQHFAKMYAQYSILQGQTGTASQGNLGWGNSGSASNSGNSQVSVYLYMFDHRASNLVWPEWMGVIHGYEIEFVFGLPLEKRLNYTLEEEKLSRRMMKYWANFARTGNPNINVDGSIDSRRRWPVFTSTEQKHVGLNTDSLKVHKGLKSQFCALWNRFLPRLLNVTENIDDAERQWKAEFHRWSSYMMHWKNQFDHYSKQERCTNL", "assay": "AChE inhibition, modified Ellman kinetic assay", "type": "biochemical", "description": "(§2) For in vitro evaluation of inhibition of EeAChE (EC3.1.1.7, type V-S, purified from Electrophorus electricus) and eqBuChE (EC 3.1.1.8, purified from equine serum, both from Sigma-Aldrich), the kinetic assay was performed according to the Ellman method modified using 96-well plates as previously described. […]. Progression curves were acquired using the Softmax PRO 5.0 software (Molecular Devices) from which the maximum hydrolysis velocity was calculated and the analysis performed with the Prism 5 software (GraphPad Inc., La Jolla, CA, USA). […]. The solvent had no detectable effect at the highest concentration used (0.2% v/v)."}, "[5]": {"biological_target": "T2, eqBuChE (Equus caballus, UniProt P81908)", "T2 construct": "purified from equine serum; purchased Sigma-Aldrich; host or cells: equine serum (natural source)", "T2 sequence (P81908 whole entry)": "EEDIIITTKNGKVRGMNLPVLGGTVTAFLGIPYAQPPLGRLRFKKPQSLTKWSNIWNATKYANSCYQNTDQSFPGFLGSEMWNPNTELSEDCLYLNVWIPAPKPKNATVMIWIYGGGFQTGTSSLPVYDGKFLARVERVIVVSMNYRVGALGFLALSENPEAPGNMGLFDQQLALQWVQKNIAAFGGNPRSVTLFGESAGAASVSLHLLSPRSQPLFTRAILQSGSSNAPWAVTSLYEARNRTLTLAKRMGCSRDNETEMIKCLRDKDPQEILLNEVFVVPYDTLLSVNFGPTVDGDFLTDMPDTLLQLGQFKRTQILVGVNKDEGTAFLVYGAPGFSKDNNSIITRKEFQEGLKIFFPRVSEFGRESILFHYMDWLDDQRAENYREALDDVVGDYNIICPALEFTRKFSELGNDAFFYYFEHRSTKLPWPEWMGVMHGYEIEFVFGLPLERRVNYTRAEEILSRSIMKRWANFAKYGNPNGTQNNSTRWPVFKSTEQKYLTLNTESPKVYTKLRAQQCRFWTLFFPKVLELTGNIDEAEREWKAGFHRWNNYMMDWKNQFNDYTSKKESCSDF", "assay": "BuChE inhibition, modified Ellman kinetic assay", "type": "biochemical", "description": "as §2"}, "[6]": {"tested_on": "SH-SY5Y cells", "assay": "Neuroprotective activity against Aβ42 oligomers in SH-SY5Y cells, MTT assay", "type": "cell-based, human", "details": "3e 5 µM with OAβ42 10 µM, 4 h", "description": "Given the best antioxidant profile of compound 3e we also evaluated its ability to protect the SH-SY5Y cells against the neurotoxicity elicited by Aβ42 peptide oligomers (OAβ42), soluble aggregates of Aβ peptides involved in the pathogenesis of AD.\nas §1\nAβ42 peptide (AnaSpec, Fremont, CA, USA) was first dissolved in 1,1,1,3,3,3-hexafluoroisopropanol to 1 mg/mL, sonicated, incubated at room temperature for 24 h, and lyophilised to obtain an unaggregated Aβ42 peptide film that was solubilised with DMSO and stored at −20 °C until use. The aggregation of Aβ42 peptide into oligomers was performed as previously described. SH-SY5Y cells were seeded in a 96-well plate at 3 × 10^4 cells/well, incubated for 24 h, and treated with the compounds for 24 h. The cells were then treated for 4 h with 3e [5 μM] and OAβ1-42 [10 μM]. The neuroprotective activity, in terms of increase in intracellular MTT granules, was measured by MTT assay, as previously described."}},
  "data": [
    {"smiles": "COc1cc(Cn2cc(C(=O)N/N=C/c3ccc(Cl)cc3)nn2)ccc1O", "note": "[3h, (E)-N’-(4-Chlorobenzylidene)-1-(4-hydroxy-3-methoxybenzyl)-1H-1,2,3-triazole-4-carbohydrazide]", "values": [
      {"measurement": "IC50", "setting": "[1]", "result": 3.02, "unit": "µM"}
    ]},
    {"smiles": "COc1cc(/C=N/NC(=O)c2cn(Cc3ccc(O)c(OC)c3)nn2)cc(OC)c1", "note": "[3d, (E)-N’-(3,5-Dimethoxybenzylidene)-1-(4-hydroxy-3-methoxybenzyl)-1H-1,2,3-triazole-4-carbohydrazide]", "values": [
      {"measurement": "IC50", "setting": "[1]", "result": 67.7, "unit": "µM"}
    ]},
    {"smiles": "COc1cc(Cn2cc(C(=O)N/N=C/c3cc(O)cc(O)c3)nn2)ccc1O", "note": "[3b, (E)-N’-(3,5-Dihydroxybenzylidene)-1-(4-hydroxy-3-methoxybenzyl)-1H-1,2,3-triazole-4-carbohydrazide]", "values": [
      {"measurement": "toxic effects", "setting": "[1]", "result": "did not show any toxic effects"},
      {"measurement": "IC50", "setting": "[1]", "result": "> 80", "unit": "µM"},
      {"measurement": "inhibition at 10 µM", "setting": "[2]", "result": 14.1, "unit": "%"},
      {"measurement": "Direct Antioxidant Activity in SH-SY5Y Cells (percentage inhibition of ROS formation induced by t-BOOH)", "setting": "[2]", "result": "In"},
      {"measurement": "effect on intracellular GSH levels", "setting": "[3]", "result": "increased the GSH levels"}
    ]},
    {"smiles": "COc1ccc(/C=N/NC(=O)c2cn(Cc3ccc(O)c(OC)c3)nn2)cc1", "note": "[3c, (E)-1-(4-Hydroxy-3-methoxybenzyl)-N’-(4-methoxybenzylidene)-1H-1,2,3-triazole-4-carbohydrazide]", "values": [
      {"measurement": "IC50", "setting": "[1]", "result": 10.3, "unit": "µM"}
    ]},
    {"smiles": "COc1cc(Cn2cc(C(=O)N/N=C/c3ccc(F)cc3)nn2)ccc1O", "note": "[3k, (E)-N’-(4-Fluorobenzylidene)-1-(4-hydroxy-3-methoxybenzyl)-1H-1,2,3-triazole-4-carbohydrazide]", "values": [
      {"measurement": "IC50", "setting": "[1]", "result": 3.62, "unit": "µM"}
    ]},
    {"smiles": "COc1cc(/C=N/NC(=O)c2cn(Cc3ccc(O)c(OC)c3)nn2)ccc1O", "note": "[3e, (E)-1-(4-Hydroxy-3-methoxybenzyl)-N’-(4-hydroxy-3-methoxybenzylidene)-1H-1,2,3-triazole-4-carbo-hydrazide]", "values": [
      {"measurement": "IC50", "setting": "[4]", "result": 26.3, "unit": "µM"},
      {"measurement": "inhibition at 30 µM", "setting": "[4]; read-out: inhibition of the AChE activity at the screening concentration", "result": "> 50", "unit": "%"},
      {"measurement": "ability to inhibit BuChE", "setting": "[5]", "result": "no relevant activity was detected"},
      {"measurement": "toxic effects", "setting": "[1]", "result": "did not show any toxic effects"},
      {"measurement": "IC50", "setting": "[1]", "result": "> 80", "unit": "µM"},
      {"measurement": "inhibition at 10 µM", "setting": "[2]", "result": 35.2, "unit": "%"},
      {"measurement": "effect on intracellular GSH levels", "setting": "[3]", "result": "increased the GSH levels"},
      {"measurement": "effect on loss of neuronal viability induced by OAβ42", "setting": "[6]", "result": "significantly reduced the loss of neuronal viability"}
    ]},
    {"smiles": "COc1cc(Cn2cc(C(=O)N/N=C/c3ccc(N4CCCCC4)cc3)nn2)ccc1O", "note": "[3g, (E)-1-(4-Hydroxy-3-methoxybenzyl)-N’-(4-(piperidin-1-yl)benzylidene)-1H-1,2,3-triazole-4-carbohydrazide]", "values": [
      {"measurement": "IC50", "setting": "[1]", "result": 10.3, "unit": "µM"}
    ]},
    {"smiles": "COc1cc(Cn2cc(C(=O)N/N=C/c3ccccc3)nn2)ccc1O", "note": "[3f, (E)-N’-Benzylidene-1-(4-hydroxy-3-methoxybenzyl)-1H-1,2,3-triazole-4-carbohydrazide]", "values": [
      {"measurement": "IC50", "setting": "[1]", "result": 63.8, "unit": "µM"}
    ]},
    {"smiles": "COc1cc(Cn2cc(C(=O)N/N=C/c3cccc(F)c3)nn2)ccc1O", "note": "[3m, (E)-N’-(3-Fluorobenzylidene)-1-(4-hydroxy-3-methoxybenzyl)-1H-1,2,3-triazole-4-carbohydrazide]", "values": [
      {"measurement": "IC50", "setting": "[1]", "result": 42.9, "unit": "µM"}
    ]},
    {"smiles": "COc1cc(Cn2cc(C(=O)N/N=C/c3cccc(Cl)c3)nn2)ccc1O", "note": "[3i, (E)-N’-(3-Chlorobenzylidene)-1-(4-hydroxy-3-methoxybenzyl)-1H-1,2,3-triazole-4-carbohydrazide]", "values": [
      {"measurement": "IC50", "setting": "[1]", "result": 10.4, "unit": "µM"}
    ]},
    {"smiles": "COc1cc(Cn2cc(C(=O)N/N=C/c3ccc(O)cc3)nn2)ccc1O", "note": "[3a, (E)-1-(4-Hydroxy-3-methoxybenzyl)-N’-(4-hydroxybenzylidene)-1H-1,2,3-triazole-4-carbohydrazide]", "values": [
      {"measurement": "toxic effects", "setting": "[1]", "result": "did not show any toxic effects"},
      {"measurement": "IC50", "setting": "[1]", "result": "> 80", "unit": "µM"},
      {"measurement": "inhibition at 10 µM", "setting": "[2]", "result": 20.6, "unit": "%"},
      {"measurement": "Direct Antioxidant Activity in SH-SY5Y Cells (percentage inhibition of ROS formation induced by t-BOOH)", "setting": "[2]", "result": "In ^d"},
      {"measurement": "effect on intracellular GSH levels", "setting": "[3]", "result": "increased the GSH levels"}
    ]},
    {"smiles": "COc1cc(Cn2cc(C(=O)N/N=C/c3ccccc3F)nn2)ccc1O", "note": "[3l, (E)-N’-(2-Fluorobenzylidene)-1-(4-hydroxy-3-methoxybenzyl)-1H-1,2,3-triazole-4-carbohydrazide]", "values": [
      {"measurement": "IC50", "setting": "[1]", "result": 68.5, "unit": "µM"}
    ]},
    {"smiles": "COc1cc(Cn2cc(C(=O)N/N=C/c3ccccc3Cl)nn2)ccc1O", "note": "[3j, (E)-N’-(2-Chlorobenzylidene)-1-(4-hydroxy-3-methoxybenzyl)-1H-1,2,3-triazole-4-carbohydrazide]", "values": [
      {"measurement": "IC50", "setting": "[1]", "result": 28.3, "unit": "µM"}
    ]}
  ]
}
